Reference: PMC11193111 (2024)

System: THF-containing double-stranded 17-mer oligodeoxynucleotide (DNA, mismatch bulge abasic, tetrahydrofuran (THF, abasic site analogue) at 6 of strand 1) TCACCNTCGTACGACTC/GAGTCGTACGACGGTGA
Test: thiazole orange displacement, fluorescence
Conditions: 100 mM KCl, 20 mM Tris-HCl pH 7.4, 0.01% Tween-20, room temperature, 250 nM thiazole orange displaced, 50 nM DNA

apparent DNA binding constant | SMILES
1.25 ± 0.32 µM | NCCNc1ccc(NCCN)c2c1C(=O)c1ccncc1C2=O
0.083 ± 0.003 µM | O=C1c2c(O)ccc(O)c2C(=O)c2c(NCCNCCO)ccc(NCCNCCO)c21
